“Also recorded” adds a separate entry of the source.
Experiments:
p21^WAF1 = assay: Western blot of p21 expression in LNCaP cells; type: cell-based, human; settings: 100 nM, 48 hours
Protocol: Cells were incubated for 5 minutes at room temperature in 100 μl of 1% SDS lysis buffer. Samples were then collected into eppendorfs, incubated for 10 minutes at 100° C., and centrifuged at 14,000 rpm for 10 minutes. Supernatants were transferred into new tubes and pellets were discarded. Determination of protein concentration was conducted using the Bradford assay. […] protein of each sample was loaded on PVDF membranes and incubated with anti p21 antibody (Santa Cruz Biotechnology, Santa Cruz, Calif., U.S.A).

MCF-7 cells = assay: MTT viability assay in MCF-7 cells; type: cell-based, human; settings: MCF-7, 1 or 5 μmol/L, 3 to 6 days
Protocol: (§1) LNCaP and MCF-7 cells were plated in 96-well plates and treated with 1 or 5 μmol/L test substances for 3 to 6 days. Cell viability following treatments was assayed by MTT. All experiments were conducted at least twice, and weighted results from all experiments are shown. *p<0.005 of BGP-15 relative to vitamin D3, **p<0.001 of BGP-15 relative to vitamin D3 and to calcipotriene.
(§2) LNCaP and MCF-7 cell-lines are widely used models for human prostate and mammary carcinomas respectively. Following BGP-15 purification and structural elucidation (FIG. 12), the effect of calcipotriene and BGP-15 on the viability of both LNCaP and MCF-7 cells was tested in-vitro by using the MTT assay, and was compared with the effect obtained by vitamin D3 (calcitriol).

[1] = system: LNCaP human prostate carcinoma cell line; assay: Neutral-Red viability assay in LNCaP cells; type: cell-based; settings: for antiproliferative effect (viability assay): 30 μM, 24 hours
Protocol: (§3) Cell culture: The following human cell lines (1) LNCaP—human prostate carcinoma cell line (2) MCF-7—human breast carcinoma cell line, and (3) GA—human melanoma cell line (3) HaCaT—immortalizes normal human skin keratinocytes were tested. Cells were inoculated in RPMI 1640 (LNCaP and GA) or Dulbecco modified eagle medium-DMEM (MCF-7 and HaCaT) supplemented with 10% heat inactivated fetal calf serum, 200 μM L-glutamine, 10 units/ml Penicillin and 10 μgr/ml Streptomycin. The cells were kept at 37° C. in a 5% CO2 humidified atmosphere.
(§4) The direct effect of the compound compared to free calcipotriene and vitamin D3 in the viability and proliferation level of cultured cells was assessed in vitro using cultured Cells. The cells were inoculated in 0.2 ml fresh medium. After 24 at 37° C. in a 5% CO2 humidified atmosphere, the medium was replaced with a fresh medium containing 0.5% ethanol and 30, 5, 1 and 0.1 μM test substance. Medium containing 0.5% ethanol without test compounds was used for the control cells. Cell growth and proliferation was assayed by Neutral-Red assay (evaluated by measuring the absorbance of the dye following 3 hours incubation, in 540 nm) at the stated times.

LNCaP cells = assay: MTT viability assay in LNCaP cells; type: cell-based, human; settings: 1 or 5 μmol/L, 3 to 6 days
Protocol: as §1, §2

[2] = system: MCF-7 human breast carcinoma cell line; assay: Neutral-Red viability assay in MCF-7 cells; type: cell-based; settings: MCF-7, 30 μM, 24 hours
Protocol: as §3, §4

[3] = system: HaCaT immortalizes normal human skin keratinocytes; assay: Neutral-Red viability assay in HaCaT cells; type: cell-based
Protocol: as §3, §4

HT-29, MCF-7, and LNCaP = assay: Activity against cell lines of human origin; type: cell-based
HaCaT cells = assay: MTT and NR viability assays for HaCaT cells (FIG. 7); type: cell-based, human; parameters: dose or concentration left out as unconfirmed; settings: (for 24 hours)
Protocol: FIG. 7 is a bar graph showing the results of a MTT and NR viability assays for HaCaT cells treated with 30 µM (for 24 hours) of 1α,25(OH)2 vitamin D3, calcipotriol (CPT), and BGP-13.
Viability of HaCaT cells in the presence of three vitamin D3 derivatives, 1α,25(OH)2 D3 (calcitriol), and BGP-013 was studied by MTT assay.

HaCaT keratinocytes = assay: Cellular entry into HaCaT keratinocytes by HPLC; type: in vitro ADME, human; settings: for entry into keratinocytes: HaCaT cultures, HPLC of external and internal fractions; for cell internalization normalized per cell: 0.5×10^6 to 9.7×10^6 cells, data not shown
Protocol: (§5) External and internal fractions of HaCaT cultures (0.5×10^6, 1×10^6, 3×10^6, 5×10^6 and 9.7×10^6 cells) were analyzed by HPLC.

[4] = Stability in the external medium; type: in vitro ADME; settings: relative to CPT
Protocol: as §5

[5] = system: HT-29 human colon cancer cells; assay: In vivo anti-tumor activity, HT-29 tumors in nude mice; settings: for tumor size relative to controls at 30 days after cancer cell injection / size of tumors versus vehicle-treated control mice: HT-29 sc in nude mice; for tumor size relative to controls at 30 days after cancer cell injection: 2 μg/kg ip; for size of tumors versus vehicle-treated control mice: 2 μg/kg ip from day 20; for weight loss or observable adverse effects: nude mice, 2 μg/kg ip three times per week
Protocol: In vivo anti-tumor activity of the novel derivatives of calcipotriol: Experiments were carried out to determine the ability of BGP-13 and BGP-15 to inhibit the growth of human tumor cells in vivo. […] Nude mice received a subcutaneous (sc) injection of HT-29 human colon cancer cells. At various time intervals after the administration of the tumor cells, the mice received three times per week intraperitoneal injections of BGP-13 and BGP-15 at a dose of 2 μg/kg. […] In one experiment 12 nude mice, which received a s.c. injection of HT-29, were divided into three groups. Starting from day 20 after tumor injection, 2 groups of the mice received ip injections of BGP-13 and BGP-15 respectively. […] At 30 days after cancer cell injection, the tumors in the treated group were half the size of the tumors in controls (FIG. 14).

[6] = Calcium metabolic model in rats; type: in vivo; settings: 20 ng daily for six days
Protocol: The clinical use of vitamin D3 as an anti-cancer agent is limited by its toxicity and concerns the possible development of hypercalcemia or hypercalciuria in treated patients. The calcium levels in rat blood, and the total daily secretion of calcium in rat urine were evaluated following daily treatments of 20 ng of vitamin D3, calcipotriene or BGP-15 for six days as shown in FIG. 15.

[7] = CPT metabolite in rat skin
Excerpt: LC/MS analysis has confirmed that the metabolite peak appeared at BGP-13's retention time was indeed this derivative (FIG. 10). […] The formation of reduced levels of this metabolite is probably due to the poor penetration of calcipotriol into the skin. Therefore, intracellular BGP-13 is an […] product of the internalized CPT with reactive oxygen species (ROS) such as singlet oxygen. This metabolic pathway of calcipotriol may have a role in scavenging ROS and reducing inflammatory processes in cells and tissue.

[8] = Reaction with singlet oxygen (endoperoxide-naphthalene trapper); settings: room temperature, product detected by TLC, LC-MS
Excerpt: The trapper, endoperoxide-naphthalene, was converted into naphthalene and released exclusively singlet oxygen at room temperature (FIG. 11). Combining calcipotriol with the endoperoxide has created a new product that was first detected by TLC as BGP-13. LC-MS has confirmed that this indeed is the substance.

Compound | p21 expression (p21^WAF1) | cell survival (MTT) (MCF-7 cells) | antiproliferative effect (viability assay) [1] | cell survival (MTT) (LNCaP cells) | activity against cell lines of human origin (HT-29, MCF-7, and LNCaP) | entry into keratinocytes (HaCaT keratinocytes) | cell internalization normalized per cell (HaCaT keratinocytes; HaCaT) | tumor size relative to controls at 30 days after cancer cell injection [5] | size of tumors versus vehicle-treated control mice [5] | weight loss or observable adverse effects [5] | hypercalcemia (calcium levels in rat blood) [6] | hypercalciuria (total daily secretion of calcium in rat urine) [6] | other results
C=C1/C(=C\C=C2/CCC[C@]3(C)[C@@H]([C@H](C)CCCC(C)(C)O)CC[C@@H]23)C[C@@H](O)C[C@@H]1O [calcitriol] | increased p21 expression | reduce prostate and breast cancer cells survival | less efficacious; also recorded: relatively lower anticancer effect | reduce prostate and breast cancer cells survival |  |  |  |  |  |  |  |  | 
C=C1/C(=C\C=C2/CCC[C@@]3(C)C2CC[C@@H]3C(C)C2C=C(C3CC3)OO2)C[C@@H](O)C[C@@H]1O (some centres unmarked) [Compound II, Calci-dioxole] | not mediated through increased p21 expression |  | much more potent antiproliferative effect on the LNCaP and MCF-7 cancer cells as compared to HaCaT cells; also recorded: significantly high efficacy; also recorded: much more potent antiproliferative effect on LNCaP and MCF-7 cancer cells than on HaCaT cells; also recorded: much more potent antiproliferative effect on LNCaP cells than calcipotriol alone |  | active at least against three cell lines | approximately 60 % of the applied substance | constant even at a high cell density | half the size | significantly smaller | did not cause either weight loss or any observable adverse effects |  |  | antiproliferative effect (viability assay) [2]: much more potent antiproliferative effect on the LNCaP and MCF-7 cancer cells as compared to HaCaT cells; also recorded: much more potent antiproliferative effect on LNCaP and MCF-7 cancer cells than on HaCaT cells; selectivity for carcinogenic versus non-carcinogenic cells ([3]; HaCaT compared with cancer cell lines): more selective for carcinogenic cells; also recorded: might have a less potent effect on non-carcinogenic cells than on carcinogenic cells; potency of treatment (viability assay) ([3]; HaCaT, 5 μM and 1 μM, 6 days): less potent than treatments with calcitriol and calcipotriol; inhibition of proliferation of keratinocytes (MTT assay) (HaCaT cells): inhibited the proliferation of the keratinocytes at the same rate and extent as CPT or calcitriol; intracellular permeation as fraction of the total quantity momentarily present in the cell culture (HaCaT keratinocytes; HaCaT): enhanced intracellular permeation increased its stability by preventing degradation in the medium; mortality (viability assay) ([1]; 5 μM, 6 days): higher mortality than cells exposed to calcipotriol alone; antiproliferative effect (viability assay) ([1]; listed as BGP-13): much more potent antiproliferative effect on LNCaP cells than calcipotriol alone; stability in the medium [4]: significantly less stable in the medium relative to CPT
C=C1/C(=C\C=C2/CCC[C@@]3(C)C2CC[C@@H]3C(C)/C=C/C(Cl)C2CC2)C[C@@H](O)C[C@@H]1O (some centres unmarked) [Calci-Cl] |  | reduce prostate and breast cancer cells survival |  | reduce prostate and breast cancer cells survival | active at least against three cell lines |  |  | half the size | significantly smaller | did not cause either weight loss or any observable adverse effects | do not generate hypercalcemia | do not generate hypercalcemia or hypercalciuria | 
C=C1/C(=C\C=C2/CCC[C@]3(C)[C@@H]([C@H](C)/C=C/[C@@H](O)C4CC4)CC[C@@H]23)C[C@@H](O)C[C@@H]1O [calcipotriol, reference compound] | increased p21 expression | reduce prostate and breast cancer cells survival | less efficacious; also recorded: relatively lower anticancer effect | reduce prostate and breast cancer cells survival |  | comparable | constant even at a high cell density |  |  |  | do not generate hypercalcemia | do not generate hypercalcemia or hypercalciuria | metabolite BGP-13 in rat skin [7]: found at low levels; action towards singlet oxygen [8]: antioxidant/quencher of singlet oxygen

— patent US8716334B2, “Substituted cyclohexylidene-ethylidene-octahydro-indene compounds” (Ben Gurion University of the Negev Research and Development …, priority 2008, dated 2014)
